Results from patent publication US20230167118A1, “DEGRADATION OF BRUTON'S TYROSINE KINASE (BTK) BY CONJUGATION OF BTK INIDBITORS WITH E3 LIGASE LIGAND AND METHODS OF USE” (BEIGENE, LTD., priority 2020, published 2023).
pIC50: −log10 of the molar value.

Experiments:
BTK = molecular target: T1, BTK (Homo sapiens, UniProt Q06187); experiment: Cell Degradation: BTK degradation in TMD-8 cells, HTRF assay; type: cell-based; conditions: 6 h treatment, IC50 (DC50) of BTK degradation
T1 construct: High control=Cell group with added DMSO and without compound, indicating microplate readings without BTK degradation; endogenous in cells; host or cells: TMD-8 cells
Outline: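 TMD-8 cells treated 6 h with 8-dose 6-fold dilutions in 0.2% DMSO, then lysed and BTK quantified by HTRF (665/620 nm). Degradation % normalised to high/low controls; DC50 from four-parameter fit, Dmax as maximal degradation.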

HEK-293 cells = experiment: HEK-293 Cytotoxicity Assay (CellTiter-Glo); type: cell-based; conditions: Homo sapiens, HEK293, 72 h incubation, CellTiter-Glo luminescence
Outline: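 HEK-293 cells treated 72 h with 8 concentrations (4-fold dilutions, 0.2% DMSO final). Viability read by CellTiter-Glo luminescence; IC50 from four-parameter logistic fit of % inhibition.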

T1 sequence (Q06187 whole entry): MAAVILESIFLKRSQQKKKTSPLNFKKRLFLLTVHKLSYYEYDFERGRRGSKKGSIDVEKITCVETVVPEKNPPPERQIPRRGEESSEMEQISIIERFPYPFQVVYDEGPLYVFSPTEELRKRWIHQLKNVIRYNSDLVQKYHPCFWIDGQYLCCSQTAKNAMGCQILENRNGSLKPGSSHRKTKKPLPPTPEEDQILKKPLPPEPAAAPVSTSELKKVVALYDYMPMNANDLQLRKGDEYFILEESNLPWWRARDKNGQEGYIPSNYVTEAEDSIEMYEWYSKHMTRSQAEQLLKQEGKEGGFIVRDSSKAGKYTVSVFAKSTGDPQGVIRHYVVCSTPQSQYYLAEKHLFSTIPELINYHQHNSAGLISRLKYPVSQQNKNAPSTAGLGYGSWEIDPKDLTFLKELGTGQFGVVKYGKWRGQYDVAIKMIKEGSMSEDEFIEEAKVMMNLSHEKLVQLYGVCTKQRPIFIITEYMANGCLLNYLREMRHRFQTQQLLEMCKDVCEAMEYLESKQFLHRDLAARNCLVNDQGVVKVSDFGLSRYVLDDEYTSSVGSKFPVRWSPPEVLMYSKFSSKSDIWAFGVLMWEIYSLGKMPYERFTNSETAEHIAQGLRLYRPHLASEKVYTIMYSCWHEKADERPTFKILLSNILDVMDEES

| Compound | DC50 (BTK) | pIC50 (HEK-293 cells) |
| --- | --- | --- |
| Cc1cc(-c2ncnc3[nH]c(-c4ccc(N5CCN(CC6CCN(c7ccc(N8CCC(=O)NC8=O)c(C)c7)CC6)CC5)cn4)cc23)ccc1[C@@H](C)NC(=O)c1noc(C2(CO)CC2)n1 [Example 123, (R)-N-(1-(4-(6-(5-(4-((1-(4-(2,4-dioxotetrahydropyrimidin-1(2H)-yl)-3-methylphenyl)piperidin-4-yl)methyl)piperazin-1-yl)pyridin-2-yl)-7H-pyrrolo[2,3-d]pyrimidin-4-yl)-2-methylphenyl)ethyl)-5-(1-(hydroxymethyl)cyclopropyl)-1,2,4-oxadiazole-3-carboxamide] | 0.16 nM | < 5.00 |
| Cc1cc(-c2ncnc3[nH]c(-c4ccc(N5CCN(CC6CCN(c7ccc(N8CCC(=O)NC8=O)c(C)c7)CC6)CC5)cn4)cc23)ccc1[C@@H](C)NC(=O)c1noc(C2(C)CC2)n1 [Example 125, (R)-N-(1-(4-(6-(5-(4-((1-(4-(2,4-dioxotetrahydropyrimidin-1(2H)-yl)-3-methylphenyl)piperidin-4-yl)methyl)piperazin-1-yl)pyridin-2-yl)-7H-pyrrolo[2,3-d]pyrimidin-4-yl)-2-methylphenyl)ethyl)-5-(1-methylcyclopropyl)-1,2,4-oxadiazole-3-carboxamide] | 0.74 nM | < 5.00 |
| Cc1c([C@@H](C)NC(=O)c2noc(C(C)(C)C)n2)ccc(-c2ncnc3[nH]c(-c4ccc(N5CCN(CC6CCN(c7ccc(N8CCC(=O)NC8=O)cc7)CC6)CC5)cn4)cc23)c1F [Example 127, (R)-5-(tert-butyl)-N-(1-(4-(6-(5-(4-((1-(4-(2,4-dioxotetrahydropyrimidin-1(2H)-yl)phenyl)piperidin-4-yl)methyl)piperazin-1-yl)pyridin-2-yl)-7H-pyrrolo[2,3-d]pyrimidin-4-yl)-3-fluoro-2-methylphenyl)ethyl)-1,2,4-oxadiazole-3-carboxamide] | 0.42 nM | < 5.00 |
| Cc1cc(N2CCC(CN3CCN(c4ccc(-c5cc6c(-c7ccc([C@@H](C)NC(=O)c8noc(C(C)(C)C)n8)c(C)c7F)ncnc6[nH]5)nc4)CC3)CC2)ccc1N1CCC(=O)NC1=O [Example 128, (R)-5-(tert-butyl)-N-(1-(4-(6-(5-(4-((1-(4-(2,4-dioxotetrahydropyrimidin-1(2H)-yl)-3-methylphenyl)piperidin-4-yl)methyl)piperazin-1-yl)pyridin-2-yl)-7H-pyrrolo[2,3-d]pyrimidin-4-yl)-3-fluoro-2-methylphenyl)ethyl)-1,2,4-oxadiazole-3-carboxamide] | 0.47 nM | < 5.00 |
| Cc1cc(-c2ncnc3[nH]c(-c4ccc(N5CCN(CC6CCN(c7ccc(N8CCC(=O)NC8=O)c(C)c7)CC6)CC5)cn4)cc23)ccc1[C@@H](C)NC(=O)c1noc(C(C)(C)C)n1 [Example 129, (R)-5-(tert-butyl)-N-(1-(4-(6-(5-(4-((1-(4-(2,4-dioxotetrahydropyrimidin-1(2H)-yl)-3-methylphenyl)piperidin-4-yl)methyl)piperazin-1-yl)pyridin-2-yl)-7H-pyrrolo[2,3-d]pyrimidin-4-yl)-2-methylphenyl)ethyl)-1,2,4-oxadiazole-3-carboxamide] | 0.33 nM | < 5.00 |
| Cc1cc(-c2ncnc3[nH]c(-c4ccc(N5CCN(CC6CCN(c7ccc(N8CCC(=O)NC8=O)cc7)CC6)CC5)cn4)cc23)c(F)cc1[C@@H](C)NC(=O)c1noc(C(C)(C)C)n1 [Example 134, (R)-5-(tert-butyl)-N-(1-(4-(6-(5-(4-((1-(4-(2,4-dioxotetrahydropyrimidin-1(2H)-yl)phenyl)piperidin-4-yl)methyl)piperazin-1-yl)pyridin-2-yl)-7H-pyrrolo[2,3-d]pyrimidin-4-yl)-5-fluoro-2-methylphenyl)ethyl)-1,2,4-oxadiazole-3-carboxamide] | 0.54 nM | < 5.00 |

The next lines start with results.

| DC50 (BTK) | Compound | pIC50 (HEK-293 cells) |
| --- | --- | --- |
| 0.23 nM | Cc1cc(-c2ncnc3[nH]c(-c4c(C)nn(C5CCN(CC6CCN(c7ccc(N8CCC(=O)NC8=O)cc7)CC6)CC5)c4C)cc23)ccc1[C@@H](C)NC(=O)c1cn(C(C)(C)C)nn1 [Example 121, (R)-1-(tert-butyl)-N-(1-(4-(6-(1-(1-((1-(4-(2,4-dioxotetrahydropyrimidin-1(2H)-yl)phenyl)piperidin-4-yl)methyl)piperidin-4-yl)-3,5-dimethyl-1H-pyrazol-4-yl)-7H-pyrrolo[2,3-d]pyrimidin-4-yl)-2-methylphenyl)ethyl)-1H-1,2,3-triazole-4-carboxamide] | < 5.00 |
| 0.29 nM | Cc1nn(C2CCN(CC3CCN(c4ccc(N5CCC(=O)NC5=O)cc4)CC3)CC2)c(C)c1-c1cc2c(-c3ccc([C@@H](C)NC(=O)c4cn(C(C)(C)C)nn4)c(CO)c3)ncnc2[nH]1 [Example 122, (R)-1-(tert-butyl)-N-(1-(4-(6-(1-(1-((1-(4-(2,4-dioxotetrahydropyrimidin-1(2H)-yl)phenyl)piperidin-4-yl)methyl)piperidin-4-yl)-3,5-dimethyl-1H-pyrazol-4-yl)-7H-pyrrolo[2,3-d]pyrimidin-4-yl)-2-(hydroxymethyl)phenyl)ethyl)-1H-1,2,3-triazole-4-carboxamide] | 5.39 |
| 1.01 nM | Cc1cc(-c2ncnc3[nH]c(-c4ccc(N5CCN(CC6CCN(c7ccc(N8CCC(=O)NC8=O)cc7)CC6)CC5)cn4)cc23)ccc1[C@@H](C)NC(=O)c1noc(C2(C)CC2)n1 [Example 124, (R)-N-(1-(4-(6-(5-(4-((1-(4-(2,4-dioxotetrahydropyrimidin-1(2H)-yl)phenyl)piperidin-4-yl)methyl)piperazin-1-yl)pyridin-2-yl)-7H-pyrrolo[2,3-d]pyrimidin-4-yl)-2-methylphenyl)ethyl)-5-(1-methylcyclopropyl)-1,2,4-oxadiazole-3-carboxamide] | < 5.00 |
| 0.41 nM | Cc1cc(-c2ncnc3[nH]c(-c4ccc(N5CCN(CC6CCN(c7ccc(N8CCC(=O)NC8=O)c(C)c7)CC6)CC5)nc4)cc23)ccc1[C@@H](C)NC(=O)c1noc(C2(C)CC2)n1 [Example 126, (R)-N-(1-(4-(6-(6-(4-((1-(4-(2,4-dioxotetrahydropyrimidin-1(2H)-yl)-3-methylphenyl)piperidin-4-yl)methyl)piperazin-1-yl)pyridin-3-yl)-7H-pyrrolo[2,3-d]pyrimidin-4-yl)-2-methylphenyl)ethyl)-5-(1-methylcyclopropyl)-1,2,4-oxadiazole-3-carboxamide] | < 5.00 |
| 0.79 nM | Cc1cc(-c2ncnc3[nH]c(-c4ccc(N5CCN(CC6CCN(c7ccc(N8CCC(=O)NC8=O)c(C)c7)CC6)CC5)cn4)cc23)c(F)cc1[C@@H](C)NC(=O)c1noc(C(C)(C)C)n1 [Example 130, (R)-5-(tert-butyl)-N-(1-(4-(6-(5-(4-((1-(4-(2,4-dioxotetrahydropyrimidin-1(2H)-yl)-3-methylphenyl)piperidin-4-yl)methyl)piperazin-1-yl)pyridin-2-yl)-7H-pyrrolo[2,3-d]pyrimidin-4-yl)-5-fluoro-2-methylphenyl)ethyl)-1,2,4-oxadiazole-3-carboxamide] | < 5.00 |
| 0.59 nM | Cc1cc(-c2ncnc3[nH]c(-c4ccc(N5CCN(CC6CCN(c7ccc(N8CCC(=O)NC8=O)cc7)CC6)CC5)nc4)cc23)c(F)cc1[C@@H](C)NC(=O)c1noc(C(C)(C)C)n1 [Example 131, (R)-5-(tert-butyl)-N-(1-(4-(6-(6-(4-((1-(4-(2,4-dioxotetrahydropyrimidin-1(2H)-yl)phenyl)piperidin-4-yl)methyl)piperazin-1-yl)pyridin-3-yl)-7H-pyrrolo[2,3-d]pyrimidin-4-yl)-5-fluoro-2-methylphenyl)ethyl)-1,2,4-oxadiazole-3-carboxamide] | < 5.00 |
| 0.79 nM | Cc1cc(-c2ncnc3[nH]c(-c4ccc(N5CCN(CC6CCN(c7ccc(N8CCC(=O)NC8=O)c(C)c7)CC6)CC5)nc4)cc23)c(F)cc1[C@@H](C)NC(=O)c1noc(C(C)(C)C)n1 [Example 132, (R)-5-(tert-butyl)-N-(1-(4-(6-(6-(4-((1-(4-(2,4-dioxotetrahydropyrimidin-1(2H)-yl)-3-methylphenyl)piperidin-4-yl)methyl)piperazin-1-yl)pyridin-3-yl)-7H-pyrrolo[2,3-d]pyrimidin-4-yl)-5-fluoro-2-methylphenyl)ethyl)-1,2,4-oxadiazole-3-carboxamide] | < 5.00 |
| 0.8 nM | Cc1cc(-c2ncnc3[nH]c(-c4ccc(N5CCN(CC6CCN(c7ccc(N8CCC(=O)NC8=O)cc7)CC6)CC5)cn4)cc23)ccc1[C@@H](C)NC(=O)c1noc(C(C)(C)C)n1 [Example 133, (R)-5-(tert-butyl)-N-(1-(4-(6-(5-(4-((1-(4-(2,4-dioxotetrahydropyrimidin-1(2H)-yl)phenyl)piperidin-4-yl)methyl)piperazin-1-yl)pyridin-2-yl)-7H-pyrrolo[2,3-d]pyrimidin-4-yl)-2-methylphenyl)ethyl)-1,2,4-oxadiazole-3-carboxamide] | < 5.00 |
| 0.17 nM | C[C@@H](NC(=O)c1noc(C(C)(C)C)n1)c1ccc(-c2ncnc3[nH]c(-c4ccc(N5CCN(CC6CCN(c7ccc(N8CCC(=O)NC8=O)cc7)CC6)CC5)cn4)cc23)cc1CO [Example 136, (R)-5-(tert-butyl)-N-(1-(4-(6-(5-(4-((1-(4-(2,4-dioxotetrahydropyrimidin-1(2H)-yl)phenyl)piperidin-4-yl)methyl)piperazin-1-yl)pyridin-2-yl)-7H-pyrrolo[2,3-d]pyrimidin-4-yl)-2-(hydroxymethyl)phenyl)ethyl)-1,2,4-oxadiazole-3-carboxamide] | < 5.00 |
